Data from patent US10736859B2, “Eutectic formulations of cyclobenzaprine hydrochloride and amitriptyline hydrochloride” (Tonix Pharma Holdings Limited, priority 2013, dated 2020).

Tests used:
[1] = DSC, FT-IR/ATR and XRPD compatibility of Cyclobenzaprine HCl with additional excipients, mixed (A) and milled (B) 1:1 mixtures (Example 2); assay type: physicochemical; details: DSC; for Interactions between Cyclobenzaprine HCl and excipients, Mixture 1:1 (mixed): mixture A, mechanical mixing only; for Interactions between Cyclobenzaprine HCl and excipients, Mixture 1:1 (milled): mixture B, ground in agate mortar
Procedure: As described above, thermal analytical techniques were further used to assess the compatibility of a drug product (tablet) containing Cyclobenzaprine HCl (API). The compatibility assessment was carried out between the API and additional excipients in a 1:1 ratio. The 1:1 API-excipient mixtures were formed in two different ways: first, by mixing only, and second, by strong milling in an agate mortar. The thermal behavior recorded in the two different mixtures were compared with those of the single components. On the basis of thermal events recorded for each component and for the mixtures, the analyses were carried out by investigating the meanings of the peaks recorded by differential scanning calorimetry (DSC) in mixtures between the API and the excipients. Furthermore, in order to define the nature of the interaction, the Fourier Transformate Infra Red Spectroscopy with Total Attenuated Reflectance (FT-IR/ATR) and X-ray powder diffraction (XRPD) of some samples (API, excipient, and mixed and milled mixtures) was carried out and compared.
Aliquots of API and each excipient were weighed in a ratio of 1:1 and ground in an agate mortar. Then, the homogeneous mixtures were analyzed. These sample mixtures were labeled “B”, while the mechanical-only mixtures were labeled “A.”
The DSC heating curves were obtained by TA 821 DSC Mettler instrument under the following conditions: • Heating rate: 10° C./min • Ambient: Nitrogen 30 mL/min • Sample holder: normal open aluminum pan • Temperature range: from 25° C. to 250° C. • Instrument calibration: Indium sample purity 99.999% Fourier Transformate Infra Red Spectroscopy with Total Attenuated Reflectance (FT-IR/ATR)
The FT-IR spectra were collected with a Perkin Elmer spectrum Two instrument with air as background and 4 cm^−1 resolution.
X-ray powder diffraction (XRPD) tests were performed with the ULTIMA IV instrument (Rigaku), laying the sample on a static sample holder. The X-ray focusing slit has a variable width, interlocked with the q value. The X-ray tube has a Copper target, with a current intensity of 40 mA and a voltage of 40 kV. Radiation was generated by the Cockcroft-Walton method, and was constituted by Kα1 (1.540562 Å) and Kα2 (1.544398 Å). The analytical conditions were: • Fixed Time; sampling width 0.02 deg, scanning rate 1.3 s/step, 2 q range 3.35 deg and sample holder; amorphous glass equiangular 9200/2G, 0.2 mm deep. The sample was pressed with a glass plate.

[2] = XRPD of binary Cyclobenzaprine HCl/mannitol mixtures (Example 3); assay type: physicochemical; details: Cyclobenzaprine HCl/mannitol mixtures 30, 50, 65, 75 and 90% API, no thermal treatment
Procedure: In order to confirm the eutectic formation and to characterize its physical properties, several binary mixtures at different ratios of API-excipient were prepared and analyzed by DSC and by X-ray powder diffraction (XRPD). The mixtures were obtained by gently milling in agate mortar of micronized Cyclobenzaprine HCl and mannitol, in order to obtain homogeneous distribution of the particles. For each DSC heating curve, the onset temperature and the enthalpy were evaluated both for the eutectic contribute and for the excess of component. The recorded values were plotted and a phase diagram between the two components was obtained with a characteristic profile of phase diagrams of eutectic mixtures.
Mixtures also were investigated by XRPD and compared with the patterns of pure components. […] The XRPD patterns obtained in the mixtures, compared with pure components, were plotted in order to confirm the linearity of the peak intensities (cpf) of mannitol and Cyclobenzaprine HCl, and a proportional peak height at characteristic 2 theta angles.
X-ray powder diffraction (XRPD) tests were performed with a ULTIMA IV (Rigaku) instrument, laying the sample on a static sample holder. […] The radiation generated by the Cockcroft-Walton method is constituted by Kα1 (1.540562 Å) and Kα2 (1.544398 Å). […]

Interactions between Cyclobenzaprine HCl and excipients, Mixture 1:1 (mixed) [1]: Eutectic | Interactions between Cyclobenzaprine HCl and excipients, Mixture 1:1 (milled) [1]: Eutectic
SMILES: OC[C@@H](O)[C@@H](O)[C@H](O)[C@H](O)CO [Mannitol]
Interactions between Cyclobenzaprine HCl and excipients, Mixture 1:1 (mixed) ([1]; listed as mannitol): physical complex interaction peak (eutectic) | Interactions between Cyclobenzaprine HCl and excipients, Mixture 1:1 (milled) ([1]; listed as mannitol): physical complex interaction peak (eutectic) | Adduct formation by XRPD [2]: no adduct formation, only a physical eutectic formation
